Patent publication US11230526B1, “Cylcoalkenyl derivatives useful as agonists of the GPR120 and/or GPR40 receptors” (Janssen Pharmaceutica NV, priority 2018, dated 2022)
pEC50: −log10 of the molar value.

Assays:
[1] = target: T1, human GPR40 (Homo sapiens, UniProt O14842); experiment: GPR40 calcium flux assay, human GPR40; type: cell-based; conditions: HEK293 cells stably expressing GPR40; table does not say human or rat
T1 construct: expressed in transfected cells
In short: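 Cells preincubated 1 h at 37° C. in HBSS, 20 mM HEPES, 0.1% BSA, then Fluo 8 calcium dye 30 min at 37° C. and 15 min at room temperature.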

[2] = target: T2, Human GPR120 short form (Homo sapiens, UniProt Q5NUL3); experiment: Human GPR120 calcium flux assay, Procedure Calcium A (2500 cells/well); type: cell-based
T2 construct: expressed in transfected cells
T2 sequence (Q5NUL3 1-361): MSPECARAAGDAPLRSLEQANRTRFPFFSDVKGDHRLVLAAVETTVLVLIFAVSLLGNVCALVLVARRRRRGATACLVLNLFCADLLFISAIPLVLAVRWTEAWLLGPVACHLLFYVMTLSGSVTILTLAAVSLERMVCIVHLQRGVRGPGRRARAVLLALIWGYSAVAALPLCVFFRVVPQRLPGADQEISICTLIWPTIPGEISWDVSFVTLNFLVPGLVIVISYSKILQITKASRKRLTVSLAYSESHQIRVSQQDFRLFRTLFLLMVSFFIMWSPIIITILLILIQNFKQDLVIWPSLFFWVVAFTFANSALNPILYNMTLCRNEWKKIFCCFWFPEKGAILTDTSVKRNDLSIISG
In short: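 HEK293 cells stably expressing human GPR120 short isoform (NM_001195755.1), 2500 cells/well, serum-starved 1 h at 37 °C and loaded with Fluo-4 NW plus probenecid. FLIPR fluorescence read for 300 s after compound addition; response = Fmax−Fmin. EC50 from four-parameter concentration–response fit.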

T1 sequence (O14842 whole entry): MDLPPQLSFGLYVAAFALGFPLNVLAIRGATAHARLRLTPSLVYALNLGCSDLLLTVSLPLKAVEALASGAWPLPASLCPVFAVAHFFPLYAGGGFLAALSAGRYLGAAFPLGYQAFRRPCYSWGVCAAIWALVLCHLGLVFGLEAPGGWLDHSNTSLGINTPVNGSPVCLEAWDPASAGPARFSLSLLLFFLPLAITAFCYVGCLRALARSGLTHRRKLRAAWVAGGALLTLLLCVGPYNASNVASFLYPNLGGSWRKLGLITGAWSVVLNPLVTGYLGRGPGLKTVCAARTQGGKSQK

`Cc1c(CCC(=O)O)ccc(OCC2=C(c3ccc(F)cc3)CCC2)c1C` [Compound 4, 3-[4-[[2-(4-fluorophenyl)cyclopenten-1-yl]methoxy]-2,3-dimethyl-phenyl]Propanoic Acid] gave a pEC50 [1] of under 5.30 and a pEC50 [2] of 6.53.
Work on `Cc1c(CCC(=O)O)ccc(OCC2=C(c3ccc(Cl)cc3)CCC2)c1C` [Compound 15, 3-(4-((2-(4-chlorophenyl)cyclopent-1-en-1-yl)methoxy)-2,3-dimethylphenyl)Propanoic Acid] yielded a pEC50 [1] of under 5.30 and a pEC50 [2] of 6.69.
Work on `CCc1ccc(C2=C(COc3c(F)cc(CCC(=O)O)cc3F)CCC2)cc1` [Compound 16, 3-(4-((2-(4-ethylphenyl)cyclopent-1-en-1-yl)methoxy)-3,5-difluorophenyl)Propanoic Acid] yielded a pEC50 [1] of under 5.30 and a pEC50 [2] of 6.70.
`Cc1c(CCC(=O)O)ccc(OCC2=C(c3ccc(OC(F)(F)F)cc3)CCC2)c1C` [Compound 20, 3-(2,3-dimethyl-4-((2-(4-(trifluoromethoxy)phenyl)cyclopent-1-en-1-yl)methoxy)phenyl)Propanoic Acid] was tested, and the pEC50 [1] was under 5.30 and the pEC50 [2] was under 4.70.
Work on `Cc1c(CCC(=O)O)ccc(OCC2=C(c3ccccc3)CCC2)c1C` [Compound 23, 3-(2,3-dimethyl-4-((2-phenylcyclopent-1-en-1-yl)methoxy)phenyl)Propanoic Acid] yielded a pEC50 [1] of under 5.30 and a pEC50 [2] of 6.52.
With `CCc1ccc(C2=C(COc3ccc(CCC(=O)O)c(F)c3F)CCC2)cc1` [Compound 25, 3-(4-((2-(4-ethylphenyl)cyclopent-1-en-1-yl)methoxy)-2,3-difluorophenyl)Propanoic Acid] the pEC50 [1] was under 5.30 and the pEC50 [2] was 6.89.
`CCc1ccc(C2=C(COc3ccc(CCC(=O)O)c(C)c3C)CCC2)cc1` [Compound 27, 3-(4-((2-(4-ethylphenyl)cyclopent-1-en-1-yl)methoxy)-2,3-dimethylphenyl)Propanoic Acid] gave a pEC50 [1] of under 5.30 and a pEC50 [2] of 6.59.
With `O=C(O)CCc1ccc(OCC2=C(c3ccc(Cl)cc3)CCC2)cc1F` [Compound 47, 3-[4-[[2-(4-chlorophenyl)cyclopenten-1-yl]methoxy]-2-fluoro-phenyl]Propanoic Acid] the pEC50 [1] was 6.03 and the pEC50 [2] was 6.24.
With `Cc1ccc(C2=C(COc3ccc(CCC(=O)O)c(C)c3C)CCC2)cc1` [Compound 52, 3-[2,3-dimethyl-4-[[2-(p-tolyl)cyclopenten-1-yl]methoxy]phenyl]Propanoic Acid] the pEC50 [1] was under 5.00 and the pEC50 [2] was 6.76.
Compound `Cc1c(CCC(=O)O)ccc(OCC2=C(c3cccc(Cl)c3)CCC2)c1C` [Compound 58, 3-[4-[[2-(3-chlorophenyl)cyclopenten-1-yl]methoxy]-2,3-dimethyl-phenyl]Propanoic Acid] has a pEC50 [1] of under 5.00 and a pEC50 [2] of 6.26.
Work on `O=C(O)CCc1cc(F)c(OCC2=C(c3ccc(Cl)cc3)CCC2)c(F)c1` [Compound 60, 3-[4-[[2-(4-chlorophenyl)cyclopenten-1-yl]methoxy]-3,5-difluoro-phenyl]Propanoic Acid] yielded a pEC50 [1] of under 5.30 and a pEC50 [2] of 6.26.
For `Cc1cc(CCC(=O)O)ccc1OCC1=C(c2ccc(Cl)cc2)CCC1` [Compound 62, 3-[4-[[2-(4-chlorophenyl)cyclopenten-1-yl]methoxy]-3-methyl-phenyl]Propanoic Acid], the pEC50 [1] was under 5.30 and the pEC50 [2] was 6.87.
Work on `COc1cc(F)cc(C2=C(COc3ccc(CCC(=O)O)c(C)c3C)CCC2)c1` [Compound 65, 3-[4-[[2-(3-fluoro-5-methoxy-phenyl)cyclopenten-1-yl]methoxy]-2,3-dimethyl-phenyl]Propanoic Acid] yielded a pEC50 [1] of under 5.30 and a pEC50 [2] of 5.60.
`Cc1c(CCC(=O)O)ccc(OCC2=C(c3ccc(Cl)c(Cl)c3)CCC2)c1C` [Compound 66, 3-[4-[[2-(3,4-dichlorophenyl)cyclopenten-1-yl]methoxy]-2,3-dimethyl-phenyl]Propanoic Acid] showed a pEC50 [1] of under 5.30 and a pEC50 [2] of 6.18.
Work on `O=C(O)CCc1ccc(OCC2=C(c3ccc(Cl)cc3)CCC2)c(F)c1F` [Compound 70, 3-[4-[[2-(4-chlorophenyl)cyclopenten-1-yl]methoxy]-2,3-difluoro-phenyl]Propanoic Acid] yielded a pEC50 [1] of under 5.30 and a pEC50 [2] of 6.46.
Work on `Cc1ccc(C2=C(COc3ccc(CCC(=O)O)c(F)c3F)CCC2)c(C)c1` [Compound 72, 3-(4-((2-(2,4-dimethylphenyl)cyclopent-1-en-1-yl)methoxy)-2,3-difluorophenyl)Propanoic Acid] yielded a pEC50 [1] of under 5.30 and a pEC50 [2] of 6.18.
`Cc1c(CCC(=O)O)ccc(OCC2=C(c3ccccc3Cl)CCC2)c1C` [Compound 76, 3-[4-[[2-(2-chlorophenyl)cyclopenten-1-yl]methoxy]-2,3-dimethyl-phenyl]Propanoic Acid] gave a pEC50 [1] of under 5.00 and a pEC50 [2] of 6.27.
Work on `Cc1c(CCC(=O)O)ccc(OCC2=C(c3cccs3)CCC2)c1C` [Compound 77, 3-[2,3-dimethyl-4-[[2-(2-thienyl)cyclopenten-1-yl]methoxy]phenyl]Propanoic Acid] yielded a pEC50 [1] of under 5.00 and a pEC50 [2] of 6.29.
`Cc1ccc(C2=C(COc3ccc(CCC(=O)O)c(F)c3F)CCC2)cc1F` [Compound 78, 3-(2,3-difluoro-4-((2-(3-fluoro-4-methylphenyl)cyclopent-1-en-1-yl)methoxy)phenyl)Propanoic Acid] gave a pEC50 [1] of under 5.30 and a pEC50 [2] of 7.03.
With `Cc1c(CCC(=O)O)ccc(OCC2=C(c3nccs3)CCC2)c1C` [Compound 79, 3-[2,3-dimethyl-4-[(2-thiazol-2-ylcyclopenten-1-yl)methoxy]phenyl]Propanoic Acid] the pEC50 [1] was under 5.30 and the pEC50 [2] was 6.12.
Work on `Cc1ccc(C2=C(COc3ccc(CCC(=O)O)c(C)c3C)CCC2)cc1F` [Compound 80, 3-(4-((2-(3-fluoro-4-methylphenyl)cyclopent-1-en-1-yl)methoxy)-2,3-dimethylphenyl)Propanoic Acid] yielded a pEC50 [1] of under 5.30 and a pEC50 [2] of 7.09.
`Cc1ccc(C2=C(COc3ccc(CCC(=O)O)c(C)c3C)CCC2)c(C)c1` [Compound 82] was tested, and the pEC50 [1] was under 5.30 and the pEC50 [2] was 6.43.
With `Cc1ccc(C2=C(COc3ccc(CCC(=O)O)c(F)c3F)CCC2)cc1C` [Compound 83, 3-(4-((2-(3,4-dimethylphenyl)cyclopent-1-en-1-yl)methoxy)-2,3-difluorophenyl)Propanoic Acid] the pEC50 [1] was under 5.30 and the pEC50 [2] was 6.23.
Compound `Cc1ccc(C2=C(COc3c(F)cc(CCC(=O)O)cc3F)CCC2)cc1C` [Compound 84, 3-(4-((2-(3,4-dimethylphenyl)cyclopent-1-en-1-yl)methoxy)-3,5-difluorophenyl)Propanoic Acid] has a pEC50 [1] of under 5.30 and a pEC50 [2] of 5.76.
`Cc1ccc(C2=C(COc3ccc(CCC(=O)O)c(C)c3C)CCC2)cn1` [Compound 85, 3-(2,3-dimethyl-4-((2-(6-methylpyridin-3-yl)cyclopent-1-en-1-yl)methoxy)phenyl)Propanoic Acid] gave a pEC50 [1] of under 5.30 and a pEC50 [2] of 6.22.
`Cc1c(CCC(=O)O)ccc(OCC2=C(c3cncs3)CCC2)c1C` [Compound 88, 3-[2,3-dimethyl-4-[(2-thiazol-5-ylcyclopenten-1-yl)methoxy]phenyl]Propanoic Acid] showed a pEC50 [1] of under 5.30 and a pEC50 [2] of 6.34.
`Cc1ccc(C2=C(COc3ccc(CCC(=O)O)c(F)c3F)CCC2)cc1N` [Compound 93, 3-(4-((2-(3-amino-4-methylphenyl)cyclopent-1-en-1-yl)methoxy)-2,3-difluorophenyl)Propanoic Acid] showed a pEC50 [1] of under 5.30 and a pEC50 [2] of 6.37.
With `Cc1ccc(C2=C(COc3ccc(CCC(=O)O)c(F)c3F)CCC2)cc1` [Compound 94, 3-(2,3-difluoro-4-((2-(p-tolyl)cyclopent-1-en-1-yl)methoxy)phenyl)Propanoic Acid] the pEC50 [1] was under 5.30 and the pEC50 [2] was 6.40.
For `Cc1ccc(C2=C(COc3c(F)cc(CCC(=O)O)cc3F)CCC2)cc1` [Compound 95, 3-(3,5-difluoro-4-((2-(p-tolyl)cyclopent-1-en-1-yl)methoxy)phenyl)Propanoic Acid], the pEC50 [1] was under 5.30 and the pEC50 [2] was 6.42.
`Cc1ccc(C2=C(COc3ccc(CCC(=O)O)cc3C)CCC2)cn1` [Compound 102, 3-(3-methyl-4-((2-(6-methylpyridin-3-yl)cyclopent-1-en-1-yl)methoxy)phenyl)Propanoic Acid] was tested, and the pEC50 [1] was under 5.30 and the pEC50 [2] was 6.11.
`Cc1c(CCC(=O)O)ccc(OCC2=C(c3ncccn3)CCC2)c1C` [Compound 105, 3-[2,3-dimethyl-4-[(2-pyrimidin-2-ylcyclopenten-1-yl)methoxy]phenyl]Propanoic Acid] was tested, and the pEC50 [1] was under 5.30 and the pEC50 [2] was 5.79.
In the case of `Cc1ccc(C2=C(COc3ccc(CCC(=O)O)c(C)c3C)CCC2)cc1C` [Compound 106, 3-(4-((2-(3,4-dimethylphenyl)cyclopent-1-en-1-yl)methoxy)-2,3-dimethylphenyl)Propanoic Acid], the pEC50 [1] was under 5.30 and the pEC50 [2] was 6.24.
`Cc1c(CCC(=O)O)ccc(OCC2=C(c3cccnc3)CCC2)c1C` [Compound 108, 3-[2,3-dimethyl-4-[[2-(3-pyridyl)cyclopenten-1-yl]methoxy]phenyl]Propanoic Acid] gave a pEC50 [1] of under 5.30 and a pEC50 [2] of 5.98.
`Cc1c(CCC(=O)O)ccc(OCC2=C(c3ccc(Cl)cc3)CC(F)(F)C2)c1C` [Compound 137, 3-[4-[[2-(4-chlorophenyl)-4,4-difluoro-cyclopenten-1-yl]methoxy]-2,3-dimethyl-phenyl]Propanoic Acid] showed a pEC50 [1] of under 5.30.
